Each block holds one compound with its values, some of them ahead of it.
How the values were obtained:
[1] = test system: F-2,6-P2 in SW620 cells; experiment: Quantification of F-2,6-P2 (Van Schaftingen coupled enzyme assay) in SW620 cells; assay type: cell-based; settings: Homo sapiens, SW-620, read-out: IC50 based on quantification of F-2,6-P2
From the text: (§1) A method for quantification of F-2,6-P2 has been described by Van Schaftingen et al. (1982) Eur. J. Biochem. 129, 191-5. This sensitive assay is based on the potent activation of pyrophosphate dependent phosphofructokinase-1 (PPi-PFK) from potato tubers by F-2,6-P2. The use of a series of coupled enzymes leads to a consumption of NADH (nicotinamide adenine dinucleotide) that can be followed spectrophotometrically (an updated protocol is available in Van Schaftingen, (1984) Methods of Enzymatic Analysis (Bergmeyer, H. U., ed.), 3rd edn., vol. 6, pp. 335-341, Verlag Chemie, Weinheim). A protocol for measurements in 96-well microtiter plate format is also available (Bruni et al., (1989) Anal. Biochem. 178, 324-6).
(§2) The levels of F-2,6-P2 have been determined using the van Shaftingen assay as described in the protocol below, in six different cancer cell lines endogenously expressing varying levels of the different isoforms of PFK-2/BPase-2 (MCF-7, PANC-1, NUGC-3, SW480, SW620 and MIA PaCa-2). All reagents were purchased from commercial sources or prepared in-house.
Cell line E (SW620, human colorectal adenocarcinoma): SW620 cells (ATCC-CCL-227), lot. no. 58483168. Cells were seeded at a concentration of ˜350 000 cells/mL in 100 μL growth medium (˜35 000 cells/well).
(§3) Growth medium (cell lines B-F): Dulbecco's Modified Eagle's Medium, DMEM, VWR, LONZ12-604F; 10% FBS, Invitrogen, 10270-106. […]

[2] = test system: SW480 cells; experiment: Inhibition of cancer cell proliferation, total cellular protein (Sulphorhodamine B), SW480; settings: Homo sapiens, 72 h, read-out: IC50 based on quantitation of total cellular protein after treatment
Description: (§4) To assess the antiproliferative response elicited by the compounds of the present invention in different tumour cell lines, total cellular protein in samples was quantified using the Sulphorhodamine B kit, TOX6, (Sigma-Aldrich). The protocol is based on quantitation of total cellular protein after indicated treatments and incubation times using the Sulphorhodamine B kit, TOX6, (Sigma-Aldrich).
(§5) Briefly, after protein precipitation using TCA according to the manufacturer's instructions, the sulphorhodamine dye (80 μL/well) was added to the air-dried wells. After 20 min incubation at room temperature, the dye was discarded and the samples were gently rinsed with 1% HOAc until clear. After air drying, bound dye was solubilised in 200 μL 10 mM Tris base, and the absorbance of dye was measured at 565 nm. To quantify growth, samples were collected also at t=0 h, and the resulting absorbance was set to 100%.
(§6) For experiments studying the effect of the herein described compounds per se, i.e. without combination treatment with cisplatin, the above protocol was applied with the following modifications. See Table II for details for each specific cell line. Briefly, cells were plated at a density of 6,000 cells/well 96-well Corning Costar tissue culture plates (CLS3596, Sigma-Aldrich) in assay medium and allowed to attach over night at 37° C., 5% CO2. Day 2 the compounds were diluted ½ in dose response curve mode in 100% DMSO, required volume was transferred to assay medium to a maximal DMSO concentration of 0.1%. The diluted compounds were added to the cells with a starting dose response concentration of 100 μM. All compounds were tested in duplicate plates.
After protein precipitation using TCA according to the manufacturer's instructions, the sulforhodamine B dye (50 μL/well) was added to the air-dried wells. […] After air drying, bound dye was solubilised in 100 μL 10 mM Tris base, and the absorbance of dye was measured at 530 nm and a background absorbance (subtract from the measurement at 530 nm) at 690 nm. To quantify growth, samples were collected also at t=0 h.

[3] = test system: F-2,6-P2 in NUGC-3 cells; experiment: Quantification of F-2,6-P2 (Van Schaftingen coupled enzyme assay) in NUGC-3 cells; assay type: cell-based; settings: Homo sapiens; NUGC-3 cells seeded at 25 000 cells/well; read-out: IC50 based on quantification of F-2,6-P2
From the text: as §1, §2
Cell line C (NUGC-3, human gastric cancer cell line): NUGC-3 cells (JCRB0822), lot no. 04272009. Growth medium: RPMI1640, #R8758, Sigma-Aldrich; 10% FBS, Invitrogen, 10270-106 or Dulbecco's Modified Eagle's Medium, DMEM, VWR, LONZ12-604F; 10% FBS, Invitrogen, 10270-106. Cells were seeded at a concentration of ˜350 000 cells/mL in 100 μL growth medium (˜35 000 cells/well).
Starvation medium (cell lines A-F): DMEM/F12 without phenol red and glucose free, SVA, 991373; 0.25% FBS, Invitrogen, 10270-106.
Induction medium (cell lines A-F): DMEM/F12 without phenol red and glucose free, SVA, 991373; 0.25% FBS, Invitrogen, 10270-106 (same as starvation medium).
Cells were seeded in 96-well Corning Costar tissue culture plates (CLS3595, Sigma-Aldrich) using the concentrations specified above for the different cell lines A-F and incubated over night at 37° C. and 5% CO2. Row A in the plate was left empty and the cell lines added to rows B-H. Next day the growth medium was discarded and replaced with 100 μL starvation medium. The plates were incubated for 18 h at 37° C. and 5% CO2. After 18 h of starvation the cells were induced with 100 μL compound or control solutions. Compounds were either tested in two concentrations (50 μM and 10 μM) or in dose response curves starting from 50 μM. The final DMSO concentration in assay plates was 0.5%. Also a dose response curve of a reference inhibitor was included in row H on each plate. All compounds were tested in duplicate plates. Compounds (in 96 well CLS 3365, Sigma-Aldrich plates) were serial diluted in DMSO from 10 mM compound DMSO stock solutions with Janus (automated liquid handling workstation from PerkinElmer). Five μL were transferred to a Greiner deep well plate (736-0155, VWR) with 495 μL starvation medium. The final start concentration of compounds in the dilution plate was 100 μM, 1% DMSO. For compounds tested as single points, 10 mM compound solutions were diluted five fold in DMSO to 2 mM, followed by the transfer of 5 μL to separate dilution plates with 495 μL starvation medium. The final concentrations of compounds in these dilution plates were 100 or 20 μM, respectively, and final concentration of DMSO was 1%. The plates were incubated at 37° C. and 5% CO2 for 1 h, followed by the addition of 10 μL 20 mM D-glucose in starvation medium. Controls, with and without 1 mM glucose, were included in row B. The final assay volume was 210 μL per well. After 2 h of incubation at 37° C. and 5% CO2, the supernatants were discarded and the cells lysed by the addition of 25 μL 250 mM NaOH. The plates were incubated at 37° C. and 5% CO2 for 5 min followed by an addition of 75 μL MilliQ dH2O. The supernatants were further diluted with 210 μL MilliQ dH2O to a final concentration of 20 mM NaOH. 200 μL were transferred to NUNC 96-well plates (7322661, VWR) and the plates were sealed and stored at −20° C. until analysis. […]

[4] = test system: F-2,6-P2 in SW480 cells; experiment: Quantification of F-2,6-P2 (Van Schaftingen coupled enzyme assay) in SW480 cells; assay type: cell-based; settings: Homo sapiens, read-out: IC50 based on quantification of F-2,6-P2
From the text: as §1, §2
Cell line D (SW480, human colorectal adenocarcinoma): SW480 cells (ATCC-CCL-228), lot. no. 58471880. Cells were seeded at a concentration of ˜350 000 cells/mL in 100 μL growth medium (˜35 000 cells/well).
as §3

[5] = test system: NMRI mice; experiment: In vivo tolerance in NMRI mice; design: species or system mouse; settings: 25 and 45 mg/kg
Description: In vivo tolerance was tested in NMRI mice using Examples 157 and 183 in 2 doses (25 and 45 mg/kg), following intraperitoneal injections daily for seven days.

[6] = test system: F-2,6-P2 in MIA PaCa-2 cells; experiment: Quantification of F-2,6-P2 (Van Schaftingen coupled enzyme assay) in MIA PaCa-2 cells; assay type: cell-based; settings: Homo sapiens, read-out: IC50 based on quantification of F-2,6-P2
From the text: as §1, §2
Cell line F (MIA PaCa-2, human pancreatic carcinoma): MIA PaCa-2 cells (ATCC-CRL-1420), lot. no. 59270201. Cells were seeded at a concentration of ˜250 000 cells/mL in 100 μL growth medium (˜25 000 cells/well). […]

[7] = test system: NUGC-3 cells; experiment: Inhibition of cancer cell proliferation, total cellular protein (Sulphorhodamine B), NUGC-3; settings: Homo sapiens, 72 h, read-out: IC50 based on quantitation of total cellular protein after treatment
Description: as §4, §5, §6
(§7) After protein precipitation using TCA according to the manufacturer's instructions, the sulforhodamine B dye (50 μL/well) was added to the air-dried wells. After 20 min incubation at room temperature, the dye was discarded and the samples were gently rinsed with 1% HOAc until clear. After air drying, bound dye was solubilised in 100 μL 10 mM Tris base, and the absorbance of dye was measured at 530 nm and a background absorbance (subtract from the measurement at 530 nm) at 690 nm. To quantify growth, samples were collected also at t=0 h.

[8] = test system: PANC-1 cells; experiment: Inhibition of cancer cell proliferation, total cellular protein (Sulphorhodamine B), PANC-1; settings: Homo sapiens, 72 h, read-out: IC50 based on quantitation of total cellular protein after treatment
Description: as §4, §5, §6, §7

IC50 [1]: 0.8 µM
Structure (SMILES): COCC(C)OC(=O)c1ccc(NS(=O)(=O)c2cc(Cl)c(Cl)s2)cc1O (centres unmarked) [Example 194, 2-Methoxy-1-methylethyl 4-{[(4,5-dichlorothiophen-2-yl)sulfonyl]amino}-2-hydroxybenzoate]

IC50 [2]: 22.3 µM
Structure (SMILES): COCC(C)OC(=O)c1ccc(NS(=O)(=O)c2cc(Cl)cc(Cl)c2)cc1O (centres unmarked) [Example 192, 2-Methoxy-1-methylethyl 4-{[(3,5-dichlorophenyl)sulfonyl]amino}-2-hydroxybenzoate]

IC50 [4]: 6.2 µM
Structure (SMILES): COC(=O)c1ccc(NS(=O)(=O)c2cccc(-c3ccccc3O)c2)cc1O [Example 82, Methyl 2-hydroxy-4-{[(2′-hydroxybiphenyl-3-yl)sulfonyl]amino}benzoate]
IC50 [3]: 1.08 µM

IC50 [2]: 20.4 µM
Structure (SMILES): CCC(COC)OC(=O)c1ccc(NS(=O)(=O)c2cc(Cl)c(Cl)s2)cc1O (centres unmarked) [Example 195, 1-(Methoxymethyl)propyl 4-{[(4,5-dichlorothiophen-2-yl)sulfonyl]amino}-2-hydroxybenzoate]

IC50 [6]: 2 µM
Structure (SMILES): COC(=O)c1ccc(NS(=O)(=O)c2cc(-c3cc(F)ccc3O)c(Cl)s2)cc1O [Example 157, methyl 4-({[5-chloro-4-(5-fluoro-2-hydroxyphenyl)-2-thienyl]sulfonyl}amino)-2-hydroxybenzoate]
histological examinations of organs ([5]; intraperitoneal daily for seven days, adrenal gland, brain, cerebellum, heart, intestines, kidneys, liver, lungs, mesenteric lymph node, pancreas, spleen): Specific lesions consistent with toxic damage were not observed | macro observations during and after treatment ([5]; intraperitoneal injections daily for seven days): no sign of abnormal behavior or health problem

IC50 [7]: 16.4 µM
Structure (SMILES): CCC(COC)OC(=O)c1ccc(NS(=O)(=O)c2cc(Cl)cc(Cl)c2)cc1O (centres unmarked) [Example 189, 1-(Methoxymethyl)propyl 4-{[(3,5-dichlorophenyl)sulfonyl]amino}-2-hydroxybenzoate]

IC50 [4]: 5.4 µM
Structure (SMILES): O=C(OCCCN1CCOCC1)c1ccc(NS(=O)(=O)c2c(Cl)sc(Cl)c2Cl)cc1O [Example 164, 3-Morpholin-4-ylpropyl 2-hydroxy-4-{[(2,4,5-trichloro-3-thienyl)sulfonyl]amino}benzoate]

IC50 [7]: 22.5 µM
Structure (SMILES): COC(=O)c1ccc(NS(=O)(=O)c2cc(-c3cc(F)ccc3F)c(Cl)s2)cc1O [Example 45, Methyl 4-({[5-chloro-4-(2,5-difluorophenyl)-2-thienyl]sulfonyl}amino)-2-hydroxybenzoate]

IC50 [1]: 2.8 µM | IC50 [8]: 16.1 µM
Structure (SMILES): COC(=O)c1ccc(NS(=O)(=O)c2cc(-c3ccccc3O)c(Cl)s2)cc1O [Example 156, Methyl 4-({[5-chloro-4-(2-hydroxyphenyl)-2-thienyl]sulfonyl}amino)-2-hydroxybenzoate]

IC50 [2]: 15.9 µM
Structure (SMILES): COCCOC(=O)c1ccc(NS(=O)(=O)c2cccc(-c3cc(F)ccc3F)c2)cc1O [Example 172, 2-Methoxyethyl 4-{[(2′,5′-difluorobiphenyl-3-yl)sulfonyl]amino}-2-hydroxybenzoate]
